This passage reports IC50 results from patent publication US8691865B2 (AbbVie Inc., priority 2008, dated 2014).

In one experiment the target is human Cav2.2 (Homo sapiens, UniProt Q00975). Put plainly: Assessment of calcium channel activity using FLIPR (Ca2+ influx in IMR32 cells). It counts as cell-based.
Sequence of human Cav2.2 (Q00975 whole entry): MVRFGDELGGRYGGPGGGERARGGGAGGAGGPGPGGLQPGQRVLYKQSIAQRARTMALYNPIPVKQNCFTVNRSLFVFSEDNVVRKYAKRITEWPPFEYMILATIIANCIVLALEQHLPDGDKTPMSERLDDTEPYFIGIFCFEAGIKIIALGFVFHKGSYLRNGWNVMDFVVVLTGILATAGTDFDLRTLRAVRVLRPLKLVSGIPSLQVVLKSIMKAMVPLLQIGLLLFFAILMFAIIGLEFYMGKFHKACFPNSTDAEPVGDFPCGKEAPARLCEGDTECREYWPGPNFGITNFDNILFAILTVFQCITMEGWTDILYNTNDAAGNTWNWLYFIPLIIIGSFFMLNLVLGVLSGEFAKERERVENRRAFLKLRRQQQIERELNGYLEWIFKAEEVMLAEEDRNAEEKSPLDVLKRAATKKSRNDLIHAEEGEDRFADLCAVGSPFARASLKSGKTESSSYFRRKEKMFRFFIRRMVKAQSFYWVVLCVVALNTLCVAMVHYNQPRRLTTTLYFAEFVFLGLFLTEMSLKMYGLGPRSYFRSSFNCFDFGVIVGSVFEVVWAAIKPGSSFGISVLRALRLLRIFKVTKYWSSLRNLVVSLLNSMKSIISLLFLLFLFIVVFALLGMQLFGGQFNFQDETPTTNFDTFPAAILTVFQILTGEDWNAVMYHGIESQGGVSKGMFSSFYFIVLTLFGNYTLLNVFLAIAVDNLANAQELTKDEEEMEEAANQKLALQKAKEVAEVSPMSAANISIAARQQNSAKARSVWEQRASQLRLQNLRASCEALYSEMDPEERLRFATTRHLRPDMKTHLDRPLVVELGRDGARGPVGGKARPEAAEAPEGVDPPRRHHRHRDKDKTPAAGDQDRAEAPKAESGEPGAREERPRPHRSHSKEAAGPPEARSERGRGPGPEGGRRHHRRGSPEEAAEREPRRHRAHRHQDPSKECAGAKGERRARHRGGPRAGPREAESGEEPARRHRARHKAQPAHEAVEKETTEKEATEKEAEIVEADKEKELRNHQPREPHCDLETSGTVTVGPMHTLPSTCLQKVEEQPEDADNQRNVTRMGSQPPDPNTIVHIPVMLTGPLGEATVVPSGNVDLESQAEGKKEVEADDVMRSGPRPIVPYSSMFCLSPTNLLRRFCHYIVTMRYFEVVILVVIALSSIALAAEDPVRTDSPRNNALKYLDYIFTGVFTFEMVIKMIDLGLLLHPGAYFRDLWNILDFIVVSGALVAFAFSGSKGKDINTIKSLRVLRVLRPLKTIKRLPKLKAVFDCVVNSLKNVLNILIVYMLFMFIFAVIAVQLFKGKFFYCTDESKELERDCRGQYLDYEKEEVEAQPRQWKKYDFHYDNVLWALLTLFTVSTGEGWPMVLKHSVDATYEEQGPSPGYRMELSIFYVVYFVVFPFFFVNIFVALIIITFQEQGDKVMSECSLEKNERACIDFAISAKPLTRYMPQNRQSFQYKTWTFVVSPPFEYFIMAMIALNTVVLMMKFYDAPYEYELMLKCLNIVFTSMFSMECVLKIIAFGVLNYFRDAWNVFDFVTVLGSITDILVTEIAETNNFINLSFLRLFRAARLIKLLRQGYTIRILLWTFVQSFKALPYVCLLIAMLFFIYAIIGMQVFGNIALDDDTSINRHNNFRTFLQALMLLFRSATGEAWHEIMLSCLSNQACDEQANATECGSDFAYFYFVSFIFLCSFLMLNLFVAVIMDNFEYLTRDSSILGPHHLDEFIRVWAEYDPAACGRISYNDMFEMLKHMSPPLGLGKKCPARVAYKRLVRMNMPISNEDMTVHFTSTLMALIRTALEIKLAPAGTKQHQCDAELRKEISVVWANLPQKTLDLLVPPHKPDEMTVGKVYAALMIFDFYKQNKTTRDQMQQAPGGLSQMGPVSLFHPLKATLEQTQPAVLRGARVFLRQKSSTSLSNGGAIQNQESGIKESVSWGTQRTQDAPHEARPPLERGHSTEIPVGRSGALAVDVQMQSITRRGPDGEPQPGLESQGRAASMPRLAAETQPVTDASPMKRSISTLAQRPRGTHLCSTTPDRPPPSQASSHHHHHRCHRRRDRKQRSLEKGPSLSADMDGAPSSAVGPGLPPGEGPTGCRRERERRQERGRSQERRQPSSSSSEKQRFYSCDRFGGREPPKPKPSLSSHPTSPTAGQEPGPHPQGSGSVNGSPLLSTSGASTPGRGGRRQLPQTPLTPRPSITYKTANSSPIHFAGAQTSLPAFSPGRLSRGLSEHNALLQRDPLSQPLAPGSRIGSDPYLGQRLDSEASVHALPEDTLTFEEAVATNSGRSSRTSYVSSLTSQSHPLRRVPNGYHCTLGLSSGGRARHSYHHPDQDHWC
Sequence of human Cav2.2 (P54289 25-956 partner limits assumed): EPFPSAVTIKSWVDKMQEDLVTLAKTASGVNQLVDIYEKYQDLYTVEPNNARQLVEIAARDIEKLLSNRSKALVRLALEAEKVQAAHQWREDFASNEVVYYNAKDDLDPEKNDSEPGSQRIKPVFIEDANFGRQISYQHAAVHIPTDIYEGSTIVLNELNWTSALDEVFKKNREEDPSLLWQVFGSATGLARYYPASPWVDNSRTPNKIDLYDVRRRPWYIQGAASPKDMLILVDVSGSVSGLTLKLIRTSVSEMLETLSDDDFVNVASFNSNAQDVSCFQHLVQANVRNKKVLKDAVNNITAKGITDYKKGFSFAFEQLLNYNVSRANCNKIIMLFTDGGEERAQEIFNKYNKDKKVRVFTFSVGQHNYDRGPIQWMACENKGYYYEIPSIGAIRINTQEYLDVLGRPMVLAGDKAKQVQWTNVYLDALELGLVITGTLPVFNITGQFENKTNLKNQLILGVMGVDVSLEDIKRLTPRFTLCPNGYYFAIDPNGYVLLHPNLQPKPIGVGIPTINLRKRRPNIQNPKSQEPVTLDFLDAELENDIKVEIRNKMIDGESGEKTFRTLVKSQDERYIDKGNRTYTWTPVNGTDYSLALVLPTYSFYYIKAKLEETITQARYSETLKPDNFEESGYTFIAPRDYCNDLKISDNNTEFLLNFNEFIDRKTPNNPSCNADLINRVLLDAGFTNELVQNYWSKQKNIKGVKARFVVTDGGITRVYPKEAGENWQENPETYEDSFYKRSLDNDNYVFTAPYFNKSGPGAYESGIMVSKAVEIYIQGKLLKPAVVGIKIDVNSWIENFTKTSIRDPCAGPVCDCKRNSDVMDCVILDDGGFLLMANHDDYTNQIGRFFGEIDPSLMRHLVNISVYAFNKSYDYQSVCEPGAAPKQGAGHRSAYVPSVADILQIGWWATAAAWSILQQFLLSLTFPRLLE
Sequence of human Cav2.2 (P54289 957-1103 partner limits assumed): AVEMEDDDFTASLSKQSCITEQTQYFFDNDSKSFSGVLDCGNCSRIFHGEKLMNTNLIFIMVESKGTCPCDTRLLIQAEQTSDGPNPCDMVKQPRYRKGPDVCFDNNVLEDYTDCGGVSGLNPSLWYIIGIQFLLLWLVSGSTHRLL
Sequence of human Cav2.2 (P54284 whole entry partner): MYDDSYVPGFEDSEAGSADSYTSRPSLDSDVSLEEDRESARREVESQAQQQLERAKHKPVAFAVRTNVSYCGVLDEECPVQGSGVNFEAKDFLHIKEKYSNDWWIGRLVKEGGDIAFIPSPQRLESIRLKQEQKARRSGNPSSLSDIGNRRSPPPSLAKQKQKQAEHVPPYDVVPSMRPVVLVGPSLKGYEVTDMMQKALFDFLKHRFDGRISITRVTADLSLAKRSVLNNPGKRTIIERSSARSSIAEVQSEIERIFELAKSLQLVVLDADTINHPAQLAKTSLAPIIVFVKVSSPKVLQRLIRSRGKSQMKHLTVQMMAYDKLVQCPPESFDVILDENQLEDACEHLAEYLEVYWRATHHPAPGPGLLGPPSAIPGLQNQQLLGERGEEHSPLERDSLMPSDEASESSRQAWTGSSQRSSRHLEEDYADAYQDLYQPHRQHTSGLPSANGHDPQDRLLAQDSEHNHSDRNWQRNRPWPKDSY
Conditions: not given
Here is the method:
(i) In Vitro Methods—Assessment of Calcium Channel Activity Using FLIPR:
The IMR32 cells were maintained in MEM media containing 10% (v/v) FBS, 1% (v/v) antibiotic/antimitotic, 1% (v/v) sodium pyruvate and 1% (v/v) MEM NEAA. Following dissociation in 0.05% (v/v) trypsin/EDTA, cells were seeded into black 1×96-well plates (Corning Cellbind) at a density of 1−1.2×10^5 cells/well and incubated in the maintenance media above for 48 hours at 37° C. […] To determine the IC50 values, the percent inhibition of the compound at each concentration was determined relative to the activity in the absence of inhibitor, and data was fitted using non-linear regression sigmoidal dose response curve analysis with GraphPad Prism®.
For the compound `O=C(N[C@H]1CC[C@@H]2CN(c3cccc(C(F)(F)F)n3)C[C@@H]21)c1ccc(F)c(Cl)c1` [Example 566, 3-chloro-4-fluoro-N-{(3aR,4S,6aS)-2-[6-(trifluoromethyl)pyridin-2-yl]octahydrocyclopenta[c]pyrrol-4-yl}benzamide], the IC50 stood at 0.81 µM.

With `CC(C)C(C(=O)N[C@@H]1CC[C@H]2CN(Cc3ccccc3)C[C@H]21)C(C)C` [Example 235, N-[(3aS,4R,6aR)-2-benzyloctahydrocyclopenta[c]pyrrol-4-yl]-2-isopropyl-3-methylbutanamide], the IC50 was found to be 11 µM.

As for `Cc1n[nH]cc1CN[C@H]1CC[C@@H]2CN(c3cccc(C(F)(F)F)n3)C[C@@H]21` [Example 695, (3aR,4S,6aS)-N-[(3-methyl-1H-pyrazol-4-yl)methyl]-2-[6-(trifluoromethyl)pyridin-2-yl]octahydrocyclopenta[c]pyrrol-4-amine], the IC50 came to 2.55 µM.

For `CN[C@@H](CC(C)C)C(=O)N[C@H]1CC[C@@H]2CN(c3ccc(F)c(C(F)F)c3)C[C@@H]21` [Example 769, N-{(3aR,4S,6aS)-2-[3-(difluoromethyl)-4-fluorophenyl]octahydrocyclopenta[c]pyrrol-4-yl}-N^2-methyl-L-leucinamide], the IC50 is 1.13 µM.

`O=C(N[C@H]1CC[C@@H]2CN(c3ccc(C(F)(F)F)cn3)C[C@@H]21)c1cc2ccccc2[nH]1` [Example 568, N-{(3aR,4S,6aS)-2-[5-(trifluoromethyl)pyridin-2-yl]octahydrocyclopenta[c]pyrrol-4-yl}-1H-indole-2-carboxamide]: the IC50 came to 2.1 µM.

For the compound `O=C(N[C@H]1CC[C@H]2CN(Cc3cccc(C(F)(F)F)c3)C[C@H]21)C(c1ccc(F)cc1)c1ccc(F)cc1` (relative stereo) [Example 136, 2,2-bis(4-fluorophenyl)-N-{(3aS*,4S*,6aR*)-2-[3-(trifluoromethyl)benzyl]octahydrocyclopenta[c]pyrrol-4-yl}acetamide], the IC50 came out at 0.64 µM.

Regarding `O=C(N[C@H]1CC[C@@H]2CN(c3ccc(C(F)(F)F)cn3)C[C@@H]21)[C@@H]1C[C@@H]2CCCC[C@@H]2N1` [Example 603, (2S,3aS,7aS)-N-{(3aR,4S,6aS)-2-[5-(trifluoromethyl)pyridin-2-yl]octahydrocyclopenta[c]pyrrol-4-yl}octahydro-1H-indole-2-carboxamide], the IC50 stood at 2.22 µM.

As to `CC(C)(C)NC(=O)N[C@H]1CC[C@@H]2CN(c3ccc(OC(F)(F)F)cc3)C[C@@H]21` [Example 778, 1-tert-butyl-3-{(3aR,4S,6aS)-2-[4-(trifluoromethoxy)phenyl]octahydrocyclopenta[c]pyrrol-4-yl}urea], the IC50 worked out at 4.27 µM.

As to `CN[C@H](CC(C)C)C(=O)N[C@@H]1CC[C@H]2CN(c3ccc(C(F)(F)F)cc3)C[C@H]21` [Example 768, N^2-methyl-N-{(3aS,4R,6aR)-2-[4-(trifluoromethyl)phenyl]octahydrocyclopenta[c]pyrrol-4-yl}-D-leucinamide], the IC50 stood at 2.36 µM.

As for `CC[C@H](C)[C@H](NC)C(=O)N[C@@H]1CC[C@H]2CN(Cc3ccccc3)C[C@H]21` [Example 354, N^1-[(3aS,4R,6aR)-2-benzyloctahydrocyclopenta[c]pyrrol-4-yl]-N^2-methyl-L-isoleucinamide], the IC50 was above 30 µM.

Turning to `O=C(N[C@H]1CC[C@@H]2CN(c3ccc(C(F)(F)F)cn3)C[C@@H]21)[C@@H]1C[C@@H](F)CN1` [Example 780, (4R)-4-fluoro-N-{(3aR,4S,6aS)-2-[5-(trifluoromethyl)pyridin-2-yl]octahydrocyclopenta[c]pyrrol-4-yl}-L-prolinamide], the IC50 stood at 14 µM.

As for `CCC[C@H](NCC(C)(C)C)C(=O)N[C@@H]1CC[C@H]2CN(S(=O)(=O)c3ccc(C(F)(F)F)cc3)C[C@H]21` [Example 260, N^2-neopentyl-N^1-((3aS,4R,6aR)-2-{[4-(trifluoromethyl)phenyl]sulfonyl}octahydrocyclopenta[c]pyrrol-4-yl)-L-norvalinamide], the IC50 turned out to be 1.11 µM.

On to `CCC[C@H](NC)C(=O)N[C@H]1CC[C@@H]2CN(c3ccc(C(F)(F)F)cc3)C[C@@H]21` [Example 759, N^2-methyl-N-{(3aR,4S,6aS)-2-[4-(trifluoromethyl)phenyl]octahydrocyclopenta[c]pyrrol-4-yl}-L-norvalinamide], for which the IC50 worked out at 13 µM.

As for `FC(F)(F)c1cccc(N2C[C@H]3CC[C@H](NCc4ccc5nsnc5c4)[C@H]3C2)n1` [Example 732, (3aR,4S,6aS)-N-(2,1,3-benzothiadiazol-5-ylmethyl)-2-[6-(trifluoromethyl)pyridin-2-yl]octahydrocyclopenta[c]pyrrol-4-amine], the IC50 turned out to be 0.56 µM.

Regarding `O=C(N[C@H]1CC[C@@H]2CN(c3cccc(F)c3)C[C@@H]21)[C@@H]1C[C@@H](F)CN1` [Example 640, (4R)-4-fluoro-N-[(3aR,4S,6aS)-2-(3-fluorophenyl)octahydrocyclopenta[c]pyrrol-4-yl]-L-prolinamide], the IC50 amounted to 14.4 µM.

`FC(F)(F)c1cccc(N2C[C@H]3CC[C@H](NCc4ccn[nH]4)[C@H]3C2)n1` [Example 663, (3aR,4S,6aS)-N-(1H-pyrazol-5-ylmethyl)-2-[6-(trifluoromethyl)pyridin-2-yl]octahydrocyclopenta[c]pyrrol-4-amine]: the IC50 stood at 1.89 µM.

`O=C(N[C@H]1CC[C@@H]2CN(c3cccc(C(F)(F)F)n3)C[C@@H]21)[C@H](O)C(F)(F)F` [Example 585, (2S)-3,3,3-trifluoro-2-hydroxy-N-{(3aR,4S,6aS)-2-[6-(trifluoromethyl)pyridin-2-yl]octahydrocyclopenta[c]pyrrol-4-yl}propanamide]: the IC50 came to 1.52 µM.

For the compound `O=C(N[C@@H]1CC[C@@H]2CN(Cc3ccccc3)C[C@@H]21)C(c1ccccc1)C1CCCCC1` (relative stereo) [Example 3, N-[(3aR*,4R*,6aS*)-2-benzyloctahydrocyclopenta[c]pyrrol-4-yl]-2-cyclohexyl-2-phenylacetamide], the IC50 amounted to 1.06 µM.

As to `C[C@H](C(=O)N[C@H]1CC[C@H]2CN(Cc3ccccc3)C[C@H]21)c1cccc(C(=O)c2ccccc2)c1` (relative stereo) [Example 12, (2S)-2-(3-benzoylphenyl)-N-[(3aS*,4S*,6aR*)-2-benzyloctahydrocyclopenta[c]pyrrol-4-yl]propanamide], the concentration for half-maximal inhibition (IC50) came to 1.22 µM.

The same experiment, now with this note: read-out: IC50 (μM) or percent inhibition (* indicates 3 minute incubation, otherwise 60 minute); IC50; 60 minute pre-incubation with compound; IMR32 cells, 80 mM KCl depolarization.
`O=C(CCCCC(c1ccc(F)cc1)c1ccc(F)cc1)N[C@H]1CC[C@H]2CN(Cc3cccc(C(F)(F)F)c3)C[C@H]21` (relative stereo) [Example 130, 6,6-bis(4-fluorophenyl)-N-{(3aS*,4S*,6aR*)-2-[3-(trifluoromethyl)benzyl]octahydrocyclopenta[c]pyrrol-4-yl}hexanamide]: the IC50 was found to be 0.79 µM.

Take `CC(C)C[C@@H](N)C(=O)N[C@@H]1CC[C@@H]2CN(Cc3cccc(C(F)(F)F)c3)C[C@@H]21` (stereo in doubt) [Example 159, N^1-{(3aR*,4R*,6aS*)-2-[3-(trifluoromethyl)benzyl]octahydrocyclopenta[c]pyrrol-4-yl}-D-leucinamide]: the IC50 turned out to be 5.55 µM.

For the compound `O=C(N[C@@H]1CC[C@H]2CN(Cc3cccc(C(F)(F)F)c3)C[C@H]21)C(O)(C1CCCCC1)C1CCCCC1` [Example 154, 2,2-dicyclohexyl-2-hydroxy-N-{(3aS,4R,6aR)-2-[3-(trifluoromethyl)benzyl]octahydrocyclopenta[c]pyrrol-4-yl}acetamide], the concentration for half-maximal inhibition (IC50) amounted to 1.33 µM.

As to `CC(C)C[C@@H](NC(=O)OC(C)(C)C)C(=O)N[C@@H]1CC[C@H]2CN(Cc3cccc(C(F)(F)F)c3)C[C@H]21` (relative stereo) [Example 149, N^2-(tert-butyloxycarbonyl)-N^1-{(3aS*,4R*,6aR*)-2-[3-(trifluoromethyl)benzyl]octahydrocyclopenta[c]pyrrol-4-yl}-D-leucinamide], the IC50 was determined as 0.62 µM.

Turning to `CC(C)C(C(=O)N[C@H]1CC[C@@H]2CN(Cc3cccc(C(F)(F)F)c3)C[C@@H]21)c1ccccc1` (stereo partly drawn) [Example 88, 3-methyl-2-phenyl-N-{(3aR,4S,6aS)-2-[3-(trifluoromethyl)benzyl]octahydrocyclopenta[c]pyrrol-4-yl}butanamide], the IC50 was 1.18 µM.

For `CCC[C@H](NC1CCCC1)C(=O)N[C@H]1CC[C@@H]2CN(S(=O)(=O)c3ccc(C(F)(F)F)cc3)C[C@@H]21` [Example 506, N^2-cyclopentyl-N^1-((3aR,4S,6aS)-2-{[4-(trifluoromethyl)phenyl]sulfonyl}octahydrocyclopenta[c]pyrrol-4-yl)-L-norvalinamide], the IC50 turned out to be 1.71 µM.

For `CN[C@@H](CC(C)C)C(=O)N[C@@H]1CC[C@H]2CN(Cc3cccc(C(F)(F)F)c3)C[C@H]21` [Example 166, N^2-methyl-N^1-{(3aS,4R,6aR)-2-[3-(trifluoromethyl)benzyl]octahydrocyclopenta[c]pyrrol-4-yl}-L-leucinamide], the IC50 came to 2.72 µM.

`CC(C)[C@@H](CC(=O)N[C@@H]1CC[C@H]2CN(S(=O)(=O)c3cccc(C(F)(F)F)c3)C[C@H]21)NC(=O)OC(C)(C)C` [Example 267, tert-butyl(1R)-1-isopropyl-3-oxo-3-[((3aS,4R,6aR)-2-{[3-(trifluoromethyl)phenyl]sulfonyl}octahydrocyclopenta[c]pyrrol-4-yl)amino]propylcarbamate]: the IC50 is 14.1 µM.

Consider `O=C(N[C@H]1CC[C@H]2CN(CCCc3ccccc3)C[C@H]21)C(C1CCCCC1)C1CCCCC1` [Example 69, 2,2-dicyclohexyl-N-[(3aS,4S,6aR)-2-(3-phenylpropyl)octahydrocyclopenta[c]pyrrol-4-yl]acetamide], for which the IC50 is 1.69 µM.

For orientation: IC50 means the midpoint of a concentration-inhibition curve.
